Data published in US6551796B1, “Nucleic acid encoding urate transporter and methods of use thereof” (Mount Sinai School of Medicine, priority 1997, dated 2003).
Each block holds one compound with its values, some of them ahead of it.

Tests used:
Assay type in all cases: biochemical
[1] = biological target: T1, recombinant UAT (urate transporter/channel) (Rattus norvegicus, UniProt P97840, L187H); test: Channel activity of recombinant rat UAT reconstituted in planar lipid bilayer (patch clamp recording); settings: for effect on channel activity, cis (cytoplasmic) side: agent added to cis chamber / cytoplasmic side of UAT; for concentration that completely blocked channel activity: agent in trans chamber (extracellular side of UAT); for reversibility of block of channel activity: replacing the agent-containing solution with agent-free urate solution
T1 construct: 6-histidine metal chelating domain (pRSET A leader) (N); made in house; host or cells: E. coli BL21(DE3)pLysE, vector pRSET A
Procedure: (§1) A mixture of bovine phosphatidyl-ethanolamine (PE, 10 mg/ml), and phosphatidylserine (PS, 10 mg/ml) (Avanti Polar Lipids, Birmingham. Ala.) in a ratio of 1:1 (wt/wt) was evaporated to dryness under nitrogen. The resultant phospholipid pellet was suspended in 48 μl of a solution containing 220 mM KCl, CsCl or Cs2SO4 and 10 mM HEPES-NaOH at pH 7.4. Following the addition of 2 μl recombinant UAT protein (50-100 μg/ml), proteoliposomes were formed by sonicating the mixture for 30 sec at 80 kHz in a bath sonicator (Laboratory Supplies, Hicksville, N.Y.) as described by Leal-Pinto et al. (1995) J. Membrane Biol. 146:123. In some experiments, proteoliposomes were prepared with the same lipids but with 10 μl recombinant HIV-1 Tat protein, as described by Zagury et al. (1996) Cellular Pharm.—AIDS Sciences 3:97 at 380 μg/ml and 40 μl of 220 mM Cs2SO4, 10 mM HEPES-NaOH at pH 7.4. Fresh proteoliposomes were prepared for each experiment.
(§2) The lipid bilayer chamber was identical to that described by Leal-Pinto et al. (1995) J. Membrane Biol. 146:123. The two cups of the plexiglass bilayer chamber were each initially filled with 1 ml of a solution whose electrolyte composition was identical to that in which the proteoliposomes were prepared. A 1:1 (wt/wt) mixture of bovine brain PE (10 mg/ml) and PS (10 mg/ml) (Avanti Polar Lipids) was dried with a nitrogen stream, dissolved in decane (Sigma Chemical Co.) to 50 mg lipid/ml and then painted with a club-shaped glass rod onto a 50 um hole in a Teflon film (Type C-20, 12.5 um thick, Dupont Electronics, Wilmington, Del.) that was fitted between the two cups of the chamber. Offset potentials due to all junction potentials were corrected by using the zero adjust system of the patch clamp amplifier (Model PC-501, Warner Instrument Co.). The voltage was subsequently clamped at varying levels (−100 to +100 mV): voltage was generated and controlled by the patch clamp amplifier. If a stable resistance of at least 100 gigohms and a noise of less than 0.2 pA were maintained, the experiments were initiated.
(§3) Experiments were initiated by adding proteoliposomes to the trans chamber (1 μl of UAT or 5-50 μl of HIV-1 Tat proteoliposomes). The solution was stirred until fusion occurred. Fusion usually occurred within 2-3 minutes of the addition of UAT-containing proteoliposomes, evidenced by the presence of channel gating (clear transitions between the closed and open states). Once fusion occurred the stirrers were stopped and the solution in the trans chamber was replaced with 1 ml of an identical solution, without proteoliposomes, to limit further channel incorporation. In all experiments channel activity was initially evaluated in the presence of symmetrical solutions of 2.5 mM urate in either 220 mM KCl, CsCl, or Cs2SO4, 10 mM HEPES-NaOH, and 0.25 mM CaCl2 at pH 7.4. In some experiments channel activity was compared in the absence and presence of 5 mM Ba^+−. To evaluate channel selectivity, experiments were performed in symmetrical solutions of 2.5 mM urate, but with infinite gradients of K^+, Cs^−, Ca^−−, Cl^− and/or SO4^═ established by using the following combination of buffered solutions in the cis and trans chambers, respectively: a) CsCl and KCl, b) Cs2SO4 and CsCl, and c) Cs2SO4 with Ca^−+ and Cs2SO4 without Ca^−+. Selectivity was also evaluated in symmetrical solutions of 220 mM Cs2SO4, 10 mM HEPES-NaOH, and 0.25 mM CaCl2 at pH 7.4 in the presence of a 10:1 urate gradient: the 2.5 mM urate, buffered Cs2SO4 solution in the trans chamber was replaced with a Cs2SO4 solution containing 0.25 mM urate. In a final group of experiments, channel activity was compared in symmetrical solutions of 2.5 mM urate, 220 mM Cs2SO4, 10 mM HEPES-NaOH, and 0.25 mM CaCl2 at pH 7.4 before and after an increasing amount of non-immune IgG (up to 200 μg) or the IgG fraction of antiporcine uricase (up to 15 μg) was sequentially added to each side of the lipid bilayer. […]

[2] = biological target: T2, hUAT (human urate transporter/channel, galectin 9) (Homo sapiens, UniProt O00182); test: Channel activity of recombinant human UAT (galectin 9) reconstituted in lipid bilayer
T2 construct: 6-histidine tag (N); made in house
Procedure: Galactin 9 was reported to be a secreted neutrophil chemoattractant. However, galectin 9 has more than 75% amino acid homology to the rat urate transporter/channel. To test whether galectin 9 is the human plasma membrane-associated urate transporter channel, cDNA was generated by RT-PCR of RNA from WBC of a normal donor and fused with an amino terminal 6-histidine tag in a bacterial expression vector. Recombinant protein (hUAT) was prepared and then purified on a Ni-NTA column. hUTA was sonicated into liposomes, fused with a lipid bilayed, and channel activity was recorded. Channel activity was only detected in the presence of urate. […] This difference in voltage sensitivity is consistent with the absence of a positively charged amino acid in hUAT in a region of the putative voltage sensing loop within rat UAT.
In a continued search for local blocks of homology between rat and human UAT and known proteins, a highly significant block of homology to copper chaperones was detected in the carboxy terminus of both the rat and human UAT. Based on the possibility that this portion of UAT binds copper, like copper chaperones, experiments were conducted to determine whether copper was able to modulate UAT channel activity. Using rat and human recombinant UAT it was observed that copper plays an important role in modulating channel activity.
The rat and human urate transporter/channel amino acid sequence contains two galactose binding sites. In the molecular model of the urate transporter/channel, both of these sites reside in extracellular domains of the protein. One site is located between the putative first and second transmembrane domain, the second is located between the putative third and fourth transmembrane domains. Experiments indicate that the addition of lactose (less than 50 μM) to the side of the bilayer chamber that is believed to face the extracellular domains of the protein alters the biophysical properties of the human urate transporter channel. […] In vivo, this could result in increased urate excretion and ultimately a reduction in plasma urate concentration.

[3] = biological target: T3, recombinant UAT (urate transporter/channel) (Rattus norvegicus, UniProt P97840); test: Channel activity of recombinant rat UAT reconstituted in planar lipid bilayer (patch clamp recording); settings: 2.5 mM urate cis : 2.5 mM oxonate trans
T3 construct: 6-histidine metal chelating domain (pRSET A leader) (N); made in house; host or cells: E. coli BL21(DE3)pLysE, vector pRSET A
Procedure: as §1, §2, §3

[4] = less than 50 μM on the side facing the extracellular domains
[5] = less than 1 μM copper added to the bathing solution

T1 sequence (P97840 1-322 isoform P97840-2 L155H): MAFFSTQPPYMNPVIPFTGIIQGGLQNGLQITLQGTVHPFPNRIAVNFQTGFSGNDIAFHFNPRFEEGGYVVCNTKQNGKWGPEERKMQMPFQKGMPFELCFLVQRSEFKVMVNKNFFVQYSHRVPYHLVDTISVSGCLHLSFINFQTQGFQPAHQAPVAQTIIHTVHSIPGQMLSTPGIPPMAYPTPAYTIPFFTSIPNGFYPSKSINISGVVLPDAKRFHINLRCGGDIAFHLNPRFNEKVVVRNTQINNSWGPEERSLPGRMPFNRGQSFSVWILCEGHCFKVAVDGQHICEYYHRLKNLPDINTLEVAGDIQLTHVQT
T2 sequence (O00182 1-323 isoform O00182-2): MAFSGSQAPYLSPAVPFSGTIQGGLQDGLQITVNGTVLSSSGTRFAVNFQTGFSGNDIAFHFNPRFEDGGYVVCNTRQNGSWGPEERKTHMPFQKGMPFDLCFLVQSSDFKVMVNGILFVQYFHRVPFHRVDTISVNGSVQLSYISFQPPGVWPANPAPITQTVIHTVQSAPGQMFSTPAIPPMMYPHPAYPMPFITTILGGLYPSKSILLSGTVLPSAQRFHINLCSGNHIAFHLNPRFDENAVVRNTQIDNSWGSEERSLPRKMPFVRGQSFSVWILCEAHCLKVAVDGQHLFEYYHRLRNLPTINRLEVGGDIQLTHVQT
T3 sequence (P97840 1-322 isoform P97840-2 L155H): as the sequence (P97840 1-322 isoform P97840-2 L155H) above

effect on channel activity from the trans side of the bilayer [2]: blocked channel activity
SMILES: NC(=O)c1cnccn1 [pyrazinamide]

effect on channel activity, trans side ([1]; 250 μM on the trans side of the channel, symmetrical urate): not affected
concentration at which channel activity was 97% blocked ([1]; oxonate in cis (cytoplasmic) chamber, symmetrical 2.5 mM urate, mean±SE, n=3): 108 ± 16 µM
reversibility of block of channel activity [1]: reversed
channel activity under bi-ionic conditions [3]: ceased after approximately one hour
SMILES: O=C(O)c1nc(=O)[nH]c(=O)[nH]1 [oxonate]

effect on channel activity, cis (cytoplasmic) side [1]: without effect
concentration that completely blocked channel activity ([1]; mean±SE): 24.1 ± 8.9 µM
reversibility of block of channel activity [1]: reversed
SMILES: O=C(O)c1cnccn1 [PZA, pyrazinoate]

The remaining lines, values behind:

SMILES: [Ba+2] [Ba^+−]
effect on channel activity ([1]; 5 mM, symmetrical 2.5 mM urate and 220 mM KCl): failed to alter channel activity

SMILES: OC[C@H]1O[C@@H](O[C@H]2[C@H](O)[C@@H](O)C(O)O[C@@H]2CO)[C@H](O)[C@@H](O)[C@H]1O (some centres unmarked) [lactose]
effect on current [2, 4]: increase in current
effect on stability of the channel in the lipid bilayer [2, 4]: apparent stabilization of the channel

SMILES: O=c1[nH]c(=O)c2[nH]cnc2[nH]1 [xanthine]
effect on channel activity, cis (cytoplasmic) side [1]: blocked channel activity
concentration that completely blocked channel activity ([1]; mean±SE): 4.6 ± 1.5 µM
ratio of blocking concentration, extracellular side versus cytoplasmic face ([1]; complete block of channel activity): approximately one-tenth

SMILES: Nc1ncnc2c1ncn2[C@@H]1O[C@H](CO)[C@@H](O)[C@H]1O [adenosine]
effect on channel activity from the trans side of the bilayer [2]: blocked channel activity
effect on channel activity, cis (cytoplasmic) side [1]: failed to block channel activity
concentration that completely blocked channel activity ([1]; mean±SE): 4.6 ± 2.6 µM

SMILES: [Cu] [copper]
effect on channel activity [2, 5]: significantly increases channel activity
open probability of the human channel after addition ([2]; less than 1 μM copper, from 5-15% before addition): 50-60%
effect on channel activity [1, 5]: significantly increases channel activity
